How the values were obtained:
Cbl-b [1] = target: T1, Cbl-b (Homo sapiens, UniProt Q13191); assay: Cbl-b activity assay (Cbl-b inhibition assay), TR-FRET of Cbl-b interaction with UbcH5B-Ub; type: biochemical
Procedure, shortened: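 Compound-treated Cbl-b was incubated 1.5 h with Src kinase (60 nM final; 30 nM for asterisked values, which also used 50 mM instead of 100 mM NaCl), 1 mM ATP and 5 mM MgCl2. Binding to fluorescent Ub-loaded UbcH5B (C85K mutant) was then read by TR-FRET after 1 h more.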

Cbl-b (residues 36-427) = Cbl-b (residues 36-427) (Homo sapiens, UniProt Q13191); assay: Cbl-b binding assay (SPR, Biacore T200); settings: 20° C., 1:1 binding model
Cbl-b (residues 36-427), sequence (Q13191 36-427): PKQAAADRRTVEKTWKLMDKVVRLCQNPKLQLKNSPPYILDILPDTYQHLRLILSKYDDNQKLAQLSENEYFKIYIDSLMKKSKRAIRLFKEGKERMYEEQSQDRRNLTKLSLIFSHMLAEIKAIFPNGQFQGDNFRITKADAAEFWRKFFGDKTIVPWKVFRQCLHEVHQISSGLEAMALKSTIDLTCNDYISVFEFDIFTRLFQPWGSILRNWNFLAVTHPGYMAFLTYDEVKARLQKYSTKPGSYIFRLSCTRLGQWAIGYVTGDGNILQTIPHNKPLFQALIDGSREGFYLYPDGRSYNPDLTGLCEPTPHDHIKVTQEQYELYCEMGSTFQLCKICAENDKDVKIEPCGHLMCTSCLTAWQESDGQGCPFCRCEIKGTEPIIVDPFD
Experimental: SPR data was collected on a Biacore T200 (GE Healthcare) using a NeutrAvidin (Invitrogen) capture surface that was generated on a polycarboxylate hydrogel sensor chip of medium charge density (XanTec Bioanalytics GmbH) at 20° C. The surface was prepared using 20 mM HEPES, pH 7.5, 100 mM NaCl, 0.5 mM TCEP, 0.01% Triton X-100 as the immobilization buffer. Neutravidin was coupled to the sensor chip through EDC/NHS amine coupling. All steps were performed using a flow rate of 10 μl/min. First, the chip was preconditioned with a 3-min injection of 1 M NaCl, 0.1 M Borate followed by a 10-min equilibration in immobilization buffer. The surface was activated by a 5-min injection of 100 mM EDC/50 mM NHS. Next, 250 μg/mL NeutrAvidin buffered in 10 mM sodium acetate buffer, pH 5.0 was injected over the surface for 2 min. The surface was deactivated with 1 M Tris, pH 8.5 for 7 min then re-equilibrated in immobilization buffer for 7 min. […] Flow cell 1 served as a reference surface and was prepared without protein. All binding measurements were made in 20 mM HEPES, pH 7.5, 100 mM NaCl, 0.5 mM TCEP, 0.01% Triton X-100, 2% DMSO (referred as assay buffer) at 20° C. Compounds, prepared in assay buffer, were diluted from atop concentration of either 100 μM or 50 μM using either a 2- or 3-fold dilution scheme containing 8 or 10 points. Samples were injected for 50 s at 50 μl/min. Dissociation time varied from 90-180 s, depending on anticipated potency. The surface was regenerated by injection of 0.3 M NaCl, prepared in assay buffer for 20 s at 10 μl/min. Positive and negative control samples were run between each compound to monitor surface integrity.
Column marked with an asterisk (*) were tested as described above with assay buffer containing 50 mM NaCl instead of 100 mM NaCl and 30 nM Src kinase instead of 60 nM Src kinase. The resulting data for the Cbl-b binding assay was solvent corrected and double referenced prior to analysis. All data were globally fit to a steady-state affinity and kinetic binding model where applicable). Fit parameters were derived from a 1:1 binding model using the Biacore T200 Evaluation Software V2.0 (GE Healthcare) (Table 2).

Cbl-b [2] = target: T1, Cbl-b; assay: Cbl-b inhibition assay (Cbl-b activity assay, FRET, Biological Example 1; 100 mM NaCl, 60 nM Src kinase); type: biochemical; settings: upper bound stated in text lists; read-out: IC50 values in the Cbl-b inhibition assay of Biological Example 1
Procedure, shortened: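 FRET read-out: loss of signal marks inhibition. Mix = biotin-Avi-Cbl-b (N-term), Src kinase, UbcH5B-Ub(Bodipy-FL, irreversible conjugate), streptavidin-Tb, assay buffer.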

T-cell [3] = assay: IL-2 secretion from T-cells co-stimulated with anti-CD3 and anti-CD28 antibody (Biological Example 2); type: cell-based, human; settings: Homo sapiens, T-cell, read-out: IL-2 secretion Anti-CD3/Anti-CD28 stimulation; for fold induction at 0.3 µM: 0.3 μM Cbl-b inhibitor; for fold induction at 1 µM: 1 μM Cbl-b inhibitor
Procedure, shortened: (§1)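 Values are fold-change over baseline: readings (IL-2 release, CD25 staining) from inhibitor-treated T-cells divided against untreated cells […]. No detailed procedure stated.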

T-cell [4] = assay: IL-2 secretion from T-cells stimulated with anti-CD3 antibody alone (Biological Example 2); type: cell-based, human; settings: T-cell, read-out: IL-2 secretion Anti-CD3 stimulation; for fold induction at 1 µM: 1 μM Cbl-b inhibitor
T-cell [5] = assay: CD25 cell surface staining on T-cells co-stimulated with anti-CD3 and anti-CD28 antibody (Biological Example 2); type: cell-based, human; settings: Homo sapiens, T-cell, read-out: CD25 staining Anti-CD3/Anti-CD28 stimulation; for fold induction at 0.3 µM: 0.3 μM Cbl-b inhibitor; for fold induction at 1 µM: 1 μM Cbl-b inhibitor
Procedure, shortened: as §1

T-cell [6] = assay: CD25 cell surface staining on T-cells stimulated with anti-CD3 antibody alone (Biological Example 2); type: cell-based, human; settings: T-cell, read-out: CD25 staining Anti-CD3 stimulation; for fold induction at 1 µM: 1 μM Cbl-b inhibitor
[7] = assay buffer with 100 mM NaCl, 60 nM Src kinase, read-out: Cbl-b activity IC50
[8] = * assay buffer containing 50 mM NaCl instead of 100 mM NaCl and 30 nM Src kinase instead of 60 nM, read-out: Cbl-b activity IC50 (μM)*
[9] = fold change over baseline, primary human total T-cells
[10] = fold change over baseline, 4 μM Cbl-b inhibitor, primary human total T-cells
[11] = fold change over baseline, 8 μM Cbl-b inhibitor, primary human total T-cells
[12] = fold change over baseline (anti-CD3/anti-CD28 stimulated T-cells without inhibitor)
[13] = Homo sapiens, fold change over baseline (anti-CD3/anti-CD28 stimulated T-cells without inhibitor)

T1 sequence (Q13191 36-427): as above

SMILES | IC50 (Cbl-b [1]; [7]) | Kd (Cbl-b (residues 36-427)) | IC50 (Cbl-b [1]; [8]) | other results
C[C@H](Sc1nncn1C)c1cccc(NC(=O)c2cc3cc(OCC(=O)O)ccc3cn2)c1 [Compound 305, (S)-2-((3-((3-(1-((4-methyl-4H-1,2,4-triazol-3-yl)thio)ethyl)phenyl)-carbamoyl)isoquinolin-6-yl)oxy)acetic acid] | 0.301 to 1 µM | > 10 µM | – | –
C[C@H](Cc1nncn1C)c1cccc(NC(=O)c2cc(C(=O)N3CC(S(C)(=O)=O)C3)ccn2)c1 [Compound 225, 4-(3-methanesulfonylazetidine-1-carbonyl)-N-[3-[(2R)-1-(4-methyl-4H-1,2,4-triazol-3-yl)propan-2-yl]phenyl]pyridine-2-carboxamide] | 1 to 3 µM | 3 to 10 µM | – | IC50 (Cbl-b [2]): ≤ 10 µM
COCC(Sc1nncn1C)c1cccc(NC(=O)c2cccc(C(F)(F)F)n2)c1 (stereo not shown) [Compound 133, N-[3-[2-methoxy-1-[(4-methyl-1,2,4-triazol-3-yl)sulfanyl]ethyl]phenyl]-6-(trifluoromethyl)pyridine-2-carboxamide] | – | 3 to 10 µM | 3 to 10 µM | –
C[C@H](Sc1nncn1C)c1cccc(NC(=O)c2ccc3c(OCC(=O)O)cccc3n2)c1 [Compound 309, (S)-2-(2-(3-(1-(4-methyl-4H-1,2,4-triazol-3-ylthio)ethyl)phenylcarbamoyl)quinolin-5-yloxy)acetic acid] | 1 to 3 µM | 3 to 10 µM | – | –
CC(Sc1nncn1C)c1cccc(NC(=O)c2cnc3ccccc3n2)c1 (stereo not shown) [Compound 17, N-(3-(1-((4-Methyl-4H-1,2,4-triazol-3-yl)thio)ethyl)phenyl)quinoxaline-2-carboxamide] | – | 3 to 10 µM | 3 to 10 µM | –
CCC(Sc1nncn1C)c1cccc(NC(=O)c2ccc3ccccc3n2)c1 (stereo not shown) [Compound 136, N-[3-[1-[(4-methyl-1,2,4-triazol-3-yl)sulfanyl]propyl]phenyl]quinoline-2-carboxamide] | – | 3 to 10 µM | 3 to 10 µM | –
C[C@H](Sc1nncn1C)c1cccc(NC(=O)c2cc3ccc(OCC(=O)O)cc3cn2)c1 [Compound 308, (S)-2-((3-((3-(1-((4-methyl-4H-1,2,4-triazol-3-yl)thio)ethyl)phenyl)carbamoyl)isoquinolin-7-yl)oxy)acetic acid] | 1 to 3 µM | 3 to 10 µM | – | –
C[C@@H](c1cccc(N2Cc3c(cccc3C(F)(F)F)C2=O)c1)[C@@H](F)c1nncn1C (single isomer, unassigned) [Compound 474a] | < 0.1 µM | 0.1 to 0.3 µM | – | –
CNC(=O)COc1ccc2cnc(C(=O)Nc3cccc([C@@H](C)Sc4nncn4C)c3)cc2c1 [Compound 306b, (R)-N-(3-(1-(4-methyl-4H-1,2,4-triazol-3-ylthio)ethyl)phenyl)-6-(2-(methylamino)-2-oxoethoxy)isoquinoline-3-carboxamide] | 3 to 10 µM | 3 to 10 µM | – | –
CNC(=O)COc1cccc2nc(C(=O)Nc3cccc([C@H](C)Sc4nncn4C)c3)ccc12 [Compound 310, (S)-N-(3-(1-((4-methyl-4H-1,2,4-triazol-3-yl)thio)ethyl)phenyl)-5-(2-(methylamino)-2-oxoethoxy)quinoline-2-carboxamide] | 0.301 to 1 µM | 0.301 to 1 µM | – | –
CC(Sc1nncn1C)c1ccc(F)c(NC(=O)c2ccc3ccccc3n2)c1 (stereo not shown) [Compound 96, N-[2-fluoro-5-[1-[(4-methyl-1,2,4-triazol-3-yl)sulfanyl]ethyl]phenyl]quinoline-2-carboxamide] | – | > 10 µM | 3 to 10 µM | –
CC(C)c1cccc(C(=O)Nc2cccc([C@H](C)Sc3nncn3C)c2)c1 [Compound 31, (S)-3-Isopropyl-N-(3-(1-((4-methyl-4H-1,2,4-triazol-3-yl)thio)ethyl)phenyl)benzamide] | – | > 10 µM | 3 to 10 µM | –
CCC(Sc1nncn1C)c1cccc(NC(=O)c2cc3ccccc3cn2)c1 (stereo not shown) [Compound 137, N-[3-[1-[(4-methyl-1,2,4-triazol-3-yl)sulfanyl]propyl]phenyl]isoquinoline-3-carboxamide] | – | 3 to 10 µM | 3 to 10 µM | –
Cn1cnnc1CC(c1cccc(N2Cc3c(cccc3C(F)(F)F)C2=O)c1)C(F)(F)F (stereo not shown) [Compound 289, 2-(3-(1,1,1-Trifluoro-3-(4-methyl-4H-1,2,4-triazol-3-yl)propan-2-yl)phenyl)-4-(trifluoromethyl)isoindolin-1-one] | 0.301 to 1 µM | – | – | IC50 (Cbl-b [2]): ≤ 0.5 µM; fold induction at 0.3 µM (T-cell [3]; [9]): < 1; fold induction at 1 µM (T-cell [3]; [9]): < 1; fold induction at 4 µM (T-cell [3]; [10]): 1.01 to 2.5; fold induction at 1 µM (T-cell [4]; [9]): 0.101 to 0.15; fold induction at 8 µM (T-cell [4]; [11]): 0.151 to 0.2; fold induction at 0.3 µM (T-cell [5]; [9]): 1.01 to 1.3; fold induction at 1 µM (T-cell [5]; [9]): 1.01 to 1.3; fold induction at 4 µM (T-cell [5]; [10]): 1.01 to 1.3; fold induction at 1 µM (T-cell [6]; [9]): 0.801 to 1; fold induction at 8 µM (T-cell [6]; [11]): 0.801 to 1
Cn1cnnc1CC1(c2cccc(N3Cc4c(cc(CN5Cc6cccnc6C5)cc4C(F)(F)F)C3=O)c2)COC1 [Example 660, 6-((5,7-dihydro-6H-pyrrolo[3,4-b]pyridin-6-yl)methyl)-2-(3-(3-((4-methyl-4H-1,2,4-triazol-3-yl)methyl)oxetan-3-yl)phenyl)-4-(trifluoromethyl)isoindolin-1-one] | < 0.1 µM | – | – | IC50 (Cbl-b [2]): ≤ 0.1 µM; fold induction at 0.3 µM (T-cell [3]; [12]): 2.51 to 5; fold induction at 1 µM (T-cell [3]; [12]): > 7.5; fold induction at 1 µM (T-cell [4]; [13]): > 0.201; fold induction at 0.3 µM (T-cell [5]; [12]): 1.31 to 1.5; fold induction at 1 µM (T-cell [5]; [12]): 1.31 to 1.5; fold induction at 1 µM (T-cell [6]; [13]): > 1
C[C@H](Sc1nncn1C)c1cccc(NC(=O)c2cccc(C(F)(F)F)c2)c1 [Compound 29, (S)-N-(3-(1-((4-Methyl-4H-1,2,4-triazol-3-yl)thio)ethyl)phenyl)-3-(trifluoromethyl)benzamide] | – | > 10 µM | 3 to 10 µM | –

— patent US20220324835A1 (Nurix Therapeutics, Inc., priority 2018, published 2022)
